{"source": "patent US20250049776A1", "about": "“AUTOPHAGY INDUCING COMPOUNDS AND USES THEREOF, IN PARTICULAR FOR A SYSTEMIC TREATMENT OF DISEASES AND CONDITIONS” (Samsara Therapeutics Inc., priority 2021, published 2025)", "tested_on": "C3-PMP22 transgenic mice (B6.Cg-Tg(PMP22)C3Fbas/J)", "experiment": "Mouse model of Charcot-Marie-Tooth 1A (CMT1A)", "assay_type": "in vivo", "text": "Compound 163 was selected as an example compound of this invention to be evaluated in this model. This model (run by In vivex SAS, France) uses C3-PMP22 transgenic mice (B6·Cg-Tg(PMP22)C3Fbas/J) which express three copies of a wild-type human peripheral myelin protein 22 (PMP22) gene. These mice present an age-dependent demyelinating neuropathy characterized by predominantly distal loss of strength and sensation. C3-PMP mice show no overt clinical signs at 3 weeks and develop mild neuromuscular impairment in an age-dependent manner. They have stable, low nerve conduction velocities similar to adults with human CMT1A. Myelination is delayed in these mice, and they contain reduced numbers of myelinated fibres at 3 weeks of age.\n• Animal characteristics: • Sex/Species/Strain: B6.Cg-Tg(PMP22)C3Fbas/JMale • Age: 3 weeks old • Supplier: Jackson Laboratory (USA) • Approximate weight at initiation of treatment: 19.0 g±2.5 g • Animal number: 6 mice per group • Animal identification: At the beginning of the study, animals were identified with a number on the tail. […] Clinical signs and mortality were recorded daily. Body weight was determined twice a week. • Study Outline: • Dose: 30 mg/kg • Administration: Oral gavage • Readouts: • i) Rotarod (neuromuscular performance) • ii) Sciatic nerve electrophysiology (EMG) • iii) PMP22 analysis by western blot • iv) Histology of sciatic nerve • Experimental time duration: Readouts measures at 1 and 2 months old. • Baseline rotarod and EMG readouts at 1 month old • Rotarod and EMG readouts at 2 months old • Western blot for PMP22 and histopathology of sciatic nerve at 2 months old • Vehicle used for test Compound 163: 10% DMSO/5% Cremophor R H 40 and 85% of 10% HP-β-CD in water (v/v) • Vehicle control group: vehicle only (non-treated control) • Statistics: Statistical analyses were performed using Prism software. A probability less than 5% (p<0.05) was considered as significant.\nSciatic nerve electrophysiology. Electromyography was performed on mice anesthetized with ketamine/xylazine mixture. A pair of steel needle electrodes (AD Instruments, MLA1302) were placed subcutaneously along the nerve at the sciatic notch (proximal stimulation). A second pair of electrodes were placed along the tibial nerve above the ankle (distal stimulation). Supramaximal square-wave pulses, lasting 10 ms at 1 mA were delivered using a PowerLab 26T (AD Instruments). Compound muscle action potential (CMAP) was recorded from the intrinsic foot muscles using steel electrodes. Both amplitudes and latencies of CMAP were determined. The distance between the 2 sites of stimulation was measured alongside the skin surface with fully extended legs, and nerve conduction velocities (NCVs) were calculated automatically from sciatic nerve latency measurements using Excel.\nRotarod. A rotating rod apparatus (Bioseb, France) was used to measure neuromuscular coordination and balance. Mice were first given a pretraining trial to familiarize them with the rotating rod. […] Each animal underwent 3 trials a day. For each day, values from the 3 trials were averaged for each animal, and then averaged for each group.\nAfter electrophysiology analysis and animal sacrifice, the left sciatic nerve of all animals were sampled, solubilized in 4° C. RIPA lysis buffer completed with protease inhibitors (Fisher Scientific, France), sonicated three times during 10 s on ice (Microson ultrasonic cell disruptorXL, Microsonic) and centrifuged for 30 min at 10,000 rpm at 4° C. 50 μL of the supernatant was sampled and total protein was quantified by NanoDrop using bovine serum albumin dilutions as standard. Then, ten micrograms of protein samples were denatured using Laemmli/β-mercaptoethanol (Merck, S3401) incubation at 95° C. during 10 minutes, separated on a denaturing 10% SDS-polyacrylamide gel and transferred onto nitrocellulose membranes. Membranes were blocked for 60 min with 5 mL of Licor Blocking Buffer. […]", "key": {"[1]": {"settings": "CMT1A mice at 2 months old, 30 mg/kg oral gavage twice a day during one month"}, "[2]": {"settings": "sciatic nerve histology, CMT1A mice at 2 months old, 30 mg/kg oral gavage twice a day"}}, "note": "Where a name gives a salt, the structure may show the parent alone.", "data": [{"compound": "CC(C)N(C(=O)c1csc(-c2cnn(-c3ccccc3)c2)n1)C1CCNCC1", "note": "[Compound 163, N-isopropyl-2-(1-phenyl-1H-pyrazol-4-yl)-N-(piperidin-4-yl)thiazole-4-carboxamide hydrochloride]", "values": [{"measurement": "increase in CMAP amplitude compared to the vehicle group", "setting": "[1]", "result": 86, "unit": "%"}, {"measurement": "increase in mean rotarod latency compared to the vehicle group", "setting": "[1]", "result": 133, "unit": "%"}, {"measurement": "increase in NCV compared to the vehicle group", "setting": "CMT1A mice at 2 months old, 30 mg/kg oral gavage twice a day, not statistically significant", "result": 94, "unit": "%"}, {"measurement": "differences on body weight between groups", "setting": "CMT1A mice, 30 mg/kg oral gavage twice a day", "result": "No significant differences"}, {"measurement": "decrease in the g-ratio compared to the vehicle group", "setting": "[2]", "result": 22, "unit": "%"}, {"measurement": "increase in the number of myelinating axons compared to the vehicle group", "setting": "[2]", "result": 64, "unit": "%"}, {"measurement": "increase in the axonal diameter compared to the vehicle group", "setting": "sciatic nerve histology, CMT1A mice at 2 months old, 30 mg/kg oral gavage twice a day, not statistically significant", "result": 45, "unit": "%"}, {"measurement": "decrease in the level of PMP22 compared to the vehicle group", "setting": "sciatic nerve western blot, CMT1A mice at 2 months old, 30 mg/kg oral gavage twice a day", "result": 33, "unit": "%"}]}]}
